Measurements from paper PMC7374424, “Ion-Selective Carbon Nanotube Field-Effect Transistors for Monitoring Drug Effects on Nicotinic Acetylcholine Receptor Activation in Live Cells” (Sensors (Basel, Switzerland), 2020).
Like-named read-outs stand apart in the source and are kept apart here.

Legend:
[1] = tested on: nicotinic acetylcholine receptor (nAChR), native in PC12 cells, subunits not specified; assay: inhibition of […] nicotine-induced K+ release from PC12 cells, ion-selective CNT-FET; type: cell-based, Rattus norvegicus
[2] = tested on: nicotinic acetylcholine receptor (nAChR), native in PC12 cells, subunits not specified; assay: agonist-induced K+ release from PC12 cells by ion-selective CNT-FET, Hill fit; type: cell-based, Rattus norvegicus
[3] = tested on: nicotinic acetylcholine receptor (nAChR), native in PC12 cells, subunits not specified

Row | Structure (SMILES) | IC50 [1] [pIC50] | also measured
1 | C[N+](C)(C)CCCCCC[N+](C)(C)C [HB, hexamethonium] | 4.58 ± 0.85 | –
4 | CNC1(C)C2CCC(C2)C1(C)C (stereo not shown) [MH, mecamylamine] | 5.74 ± 0.54 | –
